Where two headings read alike, the source gives them in different places.
Key:
iPSC-derived BMECs = assay: Test of compounds for the ability to mimic the activity of RA (elevated TEER); format: cell-based, human; details: for induction of elevated TEER: ability to mimic the activity of RA
Description: Further, Applicants tested a list of compounds for the ability to mimic the activity of RA.
A typical retinoic acid-enhanced blood brain barrier is created as described below and in the figures. Retinoic acid suitable for the present invention may be obtained from commercial sources such as Sigma-Aldrich. […] Both types of RA are suitable for the present invention.

in vitro = details: human, permeability
Description: (§1) To determine Pe values for radiolabeled compounds, each compound was diluted to 0.4 μCi in transport buffer (distilled water with 0.12 M NaCl, 25 mM NaHCO3, 3 mM KCl, 2 mM MgSO4, 2 mM CaCl2, 0.4 mM K2HPO4, 1 mM HEPES, and 0.1% bovine serum albumin [BSA; Sigma]). 200 μL aliquots were extracted from the basolateral chamber every 15 min and replaced by fresh transport buffer. […] [^3H]-vincristine was purchased from American Radiolabeled Chemicals (St. Louis, Mo., USA), while all other radiolabeled compounds were acquired from PerkinElmer (Waltham, Mass., USA). All compound incubations were conducted at 37° C. and carried out on a rotator. Triplicate filters were used for all permeability studies.

IMR90-4-derived BMECs = assay: in vitro; details: for permeability: human, 1 h
Description: as §1

[1] = system: hCMEC/D3 immortalized human BMEC line; details: cited from earlier work
[2] = RA treatment and optimized neural cell co-culture

Molecule | induction of elevated TEER (iPSC-derived BMECs) | other results
CC1=C(/C=C/C(C)=C\C=C\C(C)=C\C(=O)O)C(C)(C)CCC1 [9-cis RA] | – | enhancement by RA isoform (iPSC-derived BMECs; two isoforms of RA tested): producing the desired enhancement
CC1(C)CC=C(c2ccccc2)c2cc(/C=C/c3ccc(C(=O)O)cc3)ccc21 [BMS 453] | not to induce elevated TEER | –
O=Cc1c2[nH]c3ccccc3c2cc2[nH]c3ccccc3c12 [6-formylindolo[3,2-B]carbazole] | not to induce elevated TEER | –
Cc1cccc(Nc2cc(Cl)nc(SCC(=O)O)n2)c1C [WY-14643] | not to induce elevated TEER | –
O=C(O)CCc1cc(I)c(O)c(I)c1 [3,5-diiodo-4-hydroxyphenylpropionic acid] | not to induce elevated TEER | –
CC(=O)[C@H]1[C@H](C#N)C[C@H]2[C@@H]3CC=C4C[C@@H](O)CC[C@]4(C)[C@H]3CC[C@@]21C [pregnenolone-16α-carbonitrile] | not to induce elevated TEER | –
CCCCC[C@H](O)/C=C/[C@@H]1[C@H]2C/C(=C/CCCC(=O)O)C[C@H]2C[C@H]1O [carbacyclin] | induce elevated TEER | –
CD 3254 | induce elevated TEER | –
CC[C@]1(O)C[C@H]2CN(CCc3c([nH]c4ccccc34)[C@@](C(=O)OC)(c3cc4c(cc3OC)N(C=O)[C@H]3[C@@](O)(C(=O)OC)[C@H](OC(C)=O)[C@]5(CC)C=CCN6CC[C@]43[C@@H]65)C2)C1 [Vincristine, vincristine] | – | Papp A→B at 1 h (in vitro): 0.433 ×10⁻⁶ cm/s; permeability (IMR90-4-derived BMECs): 3.5±0.9×10^−5 cm/min; permeability [1]: approximately 0.75×10^−3 cm/min
CC1(C)C(=O)C(C)(C)c2cc(C(=O)Nc3ccc(C(=O)O)cc3)ccc21 [BMS 753] | induce elevated TEER | –
COc1cc2nc(N3CCN(C(=O)c4ccco4)CC3)nc(N)c2cc1OC [Prazosin, prazosin] | – | Papp A→B at 1 h (in vitro): 1.83 ×10⁻⁶ cm/s; Average Pe (IMR90-4-derived BMECs; [2]): 0.11 ± 0.006 10^−3 cm/min; Average Pe (IMR90-4-derived BMECs; RA treatment only): 0.2 ± 0.05 10^−3 cm/min; permeability (IMR90-4-derived BMECs): 2±0.5×10^−4 cm/min
C=C1CC[C@H](O)C/C1=C/C=C1\CCC[C@]2(C)[C@@H]([C@H](C)CCCC(C)(C)O)CC[C@@H]12 [25-hydroxyvitamin D3] | not to induce elevated TEER | –
CC/C=C\C/C=C\C/C=C\C/C=C\C/C=C\C/C=C\CCC(=O)O [docosa-4Z,7Z,10Z,13Z,16Z,19Z-hexaenoic acid] | not to induce elevated TEER | –
C[C@H](CCC(=O)O)[C@H]1CC[C@H]2[C@@H]3[C@H](O)C[C@@H]4C[C@H](O)CC[C@]4(C)[C@H]3C[C@H](O)[C@]12C [cholic acid] | not to induce elevated TEER | –
Clc1ccc(-c2nc3sccn3c2/C=N/OCc2ccc(Cl)c(Cl)c2)cc1 [CITCO] | not to induce elevated TEER | –
COc1cc2c(c(OC)c1OC)-c1ccc(OC)c(=O)cc1[C@@H](NC(C)=O)CC2 [Colchicine, colchicine] | – | Papp A→B at 1 h (in vitro; RA-treated cells without co-culture): 0.383 ×10⁻⁶ cm/s; Papp A→B at 1 h (in vitro; optimized co-culture conditions (pericyte/hNPC), RA-treated): 0.25 ×10⁻⁶ cm/s; Average Pe (IMR90-4-derived BMECs; [2]): 0.015 ± 0.007 10^−3 cm/min; Average Pe (IMR90-4-derived BMECs; RA treatment only): 0.023 ± 0.0096 10^−3 cm/min; permeability ([1]; hCMEC/D3, colchicine and vincristine estimated from graphical data): approximately 1.6×10^−3 cm/min
N[C@@H](Cc1cc(I)c(Oc2ccc(O)cc2)c(I)c1)C(=O)O [3,5-diiodo-L-thyronine] | not to induce elevated TEER | –
CCCCCC#CCC#CCC#CCC#CCCCC(=O)O [5,8,11,14-eicosatetraynoic acid] | not to induce elevated TEER | –

Source: patent US10590393B2, “Retinoic acid enhanced human stem cell derived blood brain barrier model” (Wisconsin Alumni Research Foundation, priority 2012, dated 2020)
